The test system of assay [1] is delayed-type hypersensitivity. As to the kind of experiment: Delayed-type hypersensitivity potentiated in mice by cyclophosphamide pretreatment (SRBC-induced paw edema). It is filed as in vivo, BALB/c male mice. The conditions noted are these: Mus musculus, po, 120 h, read-out: Delayed-type paw edema inhibitions; for inhibition in vivo at 100 mg/kg: 100 mg/kg p.o. once a day for 5 days; for inhibition in vivo at 10 mg/kg: 10 mg/kg p.o. once a day for 5 days; for inhibition in vivo at 30 mg/kg: 30 mg/kg p.o. once a day for 5 days. The method, then:
The effect of the test compounds on the delayed-type hypersensitivity. Delayed-type hypersensitivity in potentiated in mice by pretreatment with cyclophosphamide was carried out in accordance with the method of P. H. Lagrange et al., Journal of Experimental Medicine, Vol.139, pp.1529-1539(1974). In brief, BALB/c male mice (8 weeks old, 6 to 8 mice per group) were pretreated with intraperitoneal injection of 75 mg/kg cyclophosphamide. Four days after the injection, 0.2 ml SRBC (sheep red blood cells) suspension (5×10^7 cells/ml) was intravenously sensitized. Three days after the sensitization; delayed-type hypersensitive responses were induced with intradermally injection of 0.05 ml SRBC suspension (8×10^9 cells/ml) to the left hind paw. After 24 hours, the mice were killed and both hind paws were cut off at the ankle to determine the weight of the paw. The SRBC-induced edema was measured as the difference between the left and right paw weights. The inhibitory percentage in paw edema produced by the compound treatment was expressed relative to the edema from the control mice. The test compounds were suspended in 0.5% carboxymethylcellulose (CMC) solution and were administered p.o. once a day for 5 days from 2 days prior to the sensitization. 0.5 % CMC solution instead of the test compounds was administered to the control mice.

For assay [2], the system named is experimental allergic encepharomyelitis (EAE). Kind of assay: Experimental allergic encepharomyelitis (EAE). Particulars: Rattus norvegicus, po, 432 h, day 0 to 13, cumulative score for 18 days, rats, read-out: Inhibition of clinical score; for inhibition in vivo at 100 mg/kg: 100 mg/kg p.o. once a day; for inhibition in vivo at 30 mg/kg: 30 mg/kg p.o. once a day. The assay is classed as in vivo, Lewis female rats. The procedure: Effect of the test compounds on experimental allergic encep-haromyelitis. Experimental allergic encepharomyelitis (EAE) is a prototype for cell-mediated autoimmune diseases, and has been widely used as an animal model of multiple sclerosis. According to the method described by Deguchi et al., Brain and Nerve, Vol.42, pp.391-397(1990), EAE was induced by using Lewis female rats (5 rats per group). […] 0.5 % CMC solution instead of the test compound was administered to the control rats. The cumulative score of the symptoms for 18 days was obtained and the inhibitory percentage in the cumulative score produced by the test compound group was expressed relative to the cumulative score from the control group.

In assay [3] the test system is hemolytic plaque forming cell (PFC) response. As to the kind of experiment: Hemolytic plaque forming cell (PFC) response, SRBC sensitization. The assay is classed as in vivo, BDF1 male mice. The conditions noted are these: for PFC No./spleen: mean ± S.E.
Assay [4] concerns very late antigen-4 (VLA-4). Kind of assay: Expression of VLA-4 on lymphocytes from EAE rats (flow cytometry). The assay is classed as in vivo, rat. Particulars: 100 mg/kg, ten days after immunization, control 29.9. The procedure: Effect of the compounds on the expression of cell adhesion molecule (very late antigen-4:VLA-4) in EAE rats.
VLA-4 is one of the cell adhesion molecules which may be involved in the migration of lymphocytes. The effect of the compounds on the expression of VLA-4 on lymphocytes from EAE rats was examined. […] The leukocyte fraction was isolated from 5ml of the blood by density gradient centrifugation. 5×10^5of the leukocytes were suspended in 0.5 ml of phosphate buffered saline (PBS) containing 0.1 % bovine serum albumin and then reacted with 5 μl of mouse anti-rat VLA-4 antibo dy. After incubation at 4° C. for 1 hour, the cells were reacted with fluorescence isothiocyanate-conjugated sheep anti-mouse immunoglobulin for a further 30 min. The cells were washed with PBS and were analyzed on flow cytometry. The lymphocyte population was isolated to construct on based a forward and 90° light scatter. The results were expressed as a percentage of VLA-4 positive cell number to the lymphocyte number.

In another assay the test system is CD11b. Kind of assay: Enhanced expression of CD11b in HL-60 cells stimulated by PMA (flow cytometry). The assay is classed as cell-based, human. Particulars: 10 μg/ml; HL-60, 24 hours; mean ± S.E., 6 measurements; control 82.2 ± 4.9. The method, then:
Effect of the test compounds on the enhanced expression of cell adhesion molecule CD11b in HL-60 (human promyelocytic leukemia cell line)stimulatedby phorbol myristate acetate (PMA).
CD11b is the α-chain of cell adhesion molucule Mac-1, which is expressed in the activation of monocytes. The effect of the test compounds on the expression of CD11b on monocytes, HL-60 cells was analyzed. In brief, 5×10^6 HL-60 cells were suspended in 2 ml of RPMI-1640 containing 10% fetal calf serum (FCS) in each well of a 12-well multiplate, and then PMA ([…] final concentration) and the test compound were added to themedium. After incubation at 37° C. for 24 hours in an atmosphere containig 5% CO2, the cells were collected and was hed with PBS. 3×10^3 HL-60 cells were resuspended in 300 μl PBS(containing 1% FCS) and incubated with 5 μl of phycoerythrin-conjugated mouse anti-human CD11b antibody. After 1 hour incubation at 4° C., the cells were washed with PBS. The cells were analyzed on flow cytometry, and the results were expressed as the enhanced percentage of CD11b positive cells in the treated group relative to the PMA-untreated group.
(A flow cytometer gives signals particle by particle.)

Setting [5] is: 2 × 10^6 cells sensitization, 10 mg/kg p.o. for 3 days.
[6] abbreviates: 2 × 10^8 cells sensitization, 10 mg/kg p.o. for 3 days.
[7] abbreviates: 2 × 10^6 cells sensitization, 1 mg/kg p.o. for 3 days.
The mark [8] stands for this setting: 2 × 10^6 cells sensitization, 100 mg/kg p.o. for 3 days.
Where [9] appears, read: 2 × 10^8 cells sensitization, 1 mg/kg p.o. for 3 days.
[10] abbreviates: 2 × 10^8 cells sensitization, 100 mg/kg p.o. for 3 days.

On to `CC(C)(S)[C@@H](N)C(=O)O` [D-PENICILLAMINE, D-penicillamine, reference compound], for which the figures for the inhibition in vivo at 100 mg/kg in assay [1] and in assay [2] were -3% and -10%, respectively.
Consider `C[C@]12C=CC(=O)C=C1CC[C@@H]1[C@@H]2[C@@H](O)C[C@@]2(C)[C@H]1CC[C@]2(O)C(=O)CO` [PREDNISOLONE, prednisolone, reference compound], for which, in assay [1], the inhibition in vivo at 10 mg/kg came to 44%. For the same compound, in assay [3] (setting [5]), the “PFC number, percentage of control group” value is reported as 81 PERCENTAGE and the “PFC No./spleen” value is reported as 3.97 ± 0.78 ×10^3. In assay [3] (setting [6]), the “PFC number, percentage of control group” value stood at 7 PERCENTAGE and the “PFC No./spleen” value was 17 ± 3 ×10^3.
In the case of `O=C(O)c1cc(/N=N/c2ccc(S(=O)(=O)Nc3ccccn3)cc2)ccc1O` [SULFASALAZINE, Sulfasalazine, reference compound], the inhibition in vivo at 100 mg/kg in assay [1] came out at 5%. In addition, in assay [2] (300 mg/kg p.o. once a day), the inhibition in vivo at 300 mg/kg was 1%.
For `CS(=O)(=O)Nc1cc2occ(NC=O)c(=O)c2cc1Oc1ccccc1` [compound No. 1, 3-formylamino-7-methylsulfonylamino-6-phenoxy-4H-1-benzopyran-4-one], in assay [1], the inhibition in vivo at 10 mg/kg stood at 12%. Also, in assay [1], the inhibition in vivo at 30 mg/kg turned out to be 27%. The inhibition in vivo at 100 mg/kg in assay [1] came out at 39%; in assay [2], 67%. The “PFC number, percentage of control group” value in assay [3] (setting [7]) stood at 145 PERCENTAGE; in assay [3] (setting [5]), 146 PERCENTAGE; in assay [3] (setting [8]), 111 PERCENTAGE; in assay [3] (setting [9]) it was 963 PERCENTAGE; in assay [3] (setting [6]), 92 PERCENTAGE; in assay [3] (setting [10]) it was 54 PERCENTAGE. Also, the “PFC No./spleen” value in assay [3] (setting [7]) was 7.06 ± 1.17 ×10^3; in assay [3] (setting [5]), 7.13 ± 0.52 ×10^3; in assay [3] (setting [8]), 5.40 ± 0.49 ×10^3; in assay [3] (setting [9]) it was 231 ± 18 ×10^3; in assay [3] (setting [6]), 221 ± 17 ×10^3; in assay [3] (setting [10]) it was 129 ± 20 ×10^3. In addition, the inhibition in vivo at 1 mg/kg in assay [2] (1 mg/kg p.o. once a day) was found to be 21%. Also, in assay [4], the “Percentage of VLA-4 positive cell (mean)” value was determined as 12.0 PERCENTAGE. For the same compound, the “CD11b increased rate of expression” value in the assay on CD11b was found to be 49.9 ± 1.8%.
`CS(=O)(=O)Nc1cc2occc(=O)c2cc1Oc1ccccc1` [compound No. 2, 7-methylsulfonylamino-6-phenoxy-4H-1-benzopyran-4-one]: the inhibition in vivo at 100 mg/kg in assay [1] was 17%.
Regarding `CS(=O)(=O)Nc1cc2occc(=O)c2cc1Oc1ccc(F)cc1F` [compound No. 3, 6-(2,4-difluorophenoxy)-7-methylsulfonylamino-4H-1-benzopyran-4-one], the inhibition in vivo at 30 mg/kg is 48% in assay [1] and 86% in assay [2].
With `CS(=O)(=O)Nc1cc2occ(C(N)=O)c(=O)c2cc1Oc1ccccc1` [compound No. 4, 3-carbamoyl-7-methylsulfonylamino-6-phenoxy-4H-1-benzopyran-4-one], the inhibition in vivo at 100 mg/kg in assay [1] was found to be 41%. Also, the inhibition in vivo at 30 mg/kg in assay [2] was found to be 50%.
Turning to `Cc1oc2cc(NS(C)(=O)=O)c(Oc3ccccc3)cc2c(=O)c1C(N)=O` [compound No. 5, 3-carbamoyl-2-methyl-7-methylsulfonylamino-6-phenoxy-4H-1-benzopyran-4-one], the inhibition in vivo at 100 mg/kg in assay [1] is 16%.
For `CN(C=O)c1coc2cc(NS(C)(=O)=O)c(Oc3ccccc3)cc2c1=O` [compound No. 6, 3-(N-formyl-N-methyl)amino-7-methylsulfonylamino-6-phenoxy-4H-1-benzopyran-4-one], in assay [1], the inhibition in vivo at 100 mg/kg worked out at 17%. Besides, the inhibition in vivo at 30 mg/kg in assay [2] was found to be 66%.
The like results for `CS(=O)(=O)Nc1cc2occ(C(=O)O)c(=O)c2cc1Oc1ccccc1` [compound No. 7, 3-carboxy-7-methylsulfonylamino-6-phenoxy-4H-1-benzopyran-4-one] were, in that order, 16% and 50%.
The corresponding values for `CSc1coc2cc(NS(C)(=O)=O)c(Oc3ccccc3)cc2c1=O` [compound No. 8, 3-methylthio-7-methylsulfonyl amino-6-phenoxy-4H-1-benzopyran-4-one] are 21% and 17%.
The corresponding values for `CS(=O)(=O)Nc1cc2occ(NC=O)c(=O)c2cc1Nc1ccc(F)cc1F` [compound No. 9, 6-(2,4-difluorophenylamino)-3-formylamino-7-methylsulfonylamino-4H-1-benzopyran-4-one] are 28% and 50%.
Regarding `CS(=O)(=O)Nc1cc2occ(C(N)=O)c(=O)c2cc1Nc1ccc(F)cc1F` [compound No. 10, 3-carbamoyl-6-(2,4-difluorophenylamino)-7-methylsulfonylamino-4H-1-benzopyran-4-one], the inhibition in vivo at 100 mg/kg in assay [1] amounted to 20%. The inhibition in vivo at 30 mg/kg in assay [2] came to 42%.
Consider `Cc1cc(=O)c2cc(Oc3ccccc3)c(NS(C)(=O)=O)cc2o1` [compound No. 11, 2-methyl-7-methyl sulfonylamino-6-phenoxy-4H-1-benzopyran-4-one], for which, in assay [2], the inhibition in vivo at 30 mg/kg turned out to be 52%.
In the case of `CS(=O)(=O)Nc1cc2occ(NC=O)c(=O)c2cc1Nc1ccccc1F` [compound No. 12, 6-(2-fluorophenylamino)-3-formylamino-7-methylsulfonylamino-4H-1-benzopyran-4-one], in assay [2], the inhibition in vivo at 30 mg/kg turned out to be 67%.

The values are drawn from patent publication US5922755A, “Immunomodulator, cell adhesion inhibtor, and agent for treating, and preventing autoimmune diseases” (Toyama Chemical Co., Ltd., priority 1993, dated 1999).
